Test results: ChEMBL document CHEMBL4420076, “Amylin and calcitonin receptor agonist” (2017)
Numbered stars: 1 amine (or outer) side, 2 acyl side, 3 side chain; on linkers, the order of the positions; unused ones are H or OH. Peptide text beside a SMILES is read from it. * marks the point of attachment. C20 diacid = O=C(O)CCCCCCCCCCCCCCCCCCC(=O)*; C18 diacid = O=C(O)CCCCCCCCCCCCCCCCC(=O)*; γGlu = O=C(O)[C@H](CCC(=O)[*:2])N[*:1]

Legend:
[1] = Solubility in 100 mM glycylglycine buffer at pH 4.0 incubated for 18 hrs by UPLC analysis; type: physicochemical
[2] = target: T1, Amylin receptor AMY3; CALCR/RAMP3 (Homo sapiens, UniProt O60896+P30988); assay: Displacement of [125I]-labeled rat amylin from human amylin receptor expressed in BHK tkts13 whole cells co-expressing RAMP3 incubated for 60 mins by scintillation proximity assay; type: cell-based
T1 sequence (P30988 whole entry): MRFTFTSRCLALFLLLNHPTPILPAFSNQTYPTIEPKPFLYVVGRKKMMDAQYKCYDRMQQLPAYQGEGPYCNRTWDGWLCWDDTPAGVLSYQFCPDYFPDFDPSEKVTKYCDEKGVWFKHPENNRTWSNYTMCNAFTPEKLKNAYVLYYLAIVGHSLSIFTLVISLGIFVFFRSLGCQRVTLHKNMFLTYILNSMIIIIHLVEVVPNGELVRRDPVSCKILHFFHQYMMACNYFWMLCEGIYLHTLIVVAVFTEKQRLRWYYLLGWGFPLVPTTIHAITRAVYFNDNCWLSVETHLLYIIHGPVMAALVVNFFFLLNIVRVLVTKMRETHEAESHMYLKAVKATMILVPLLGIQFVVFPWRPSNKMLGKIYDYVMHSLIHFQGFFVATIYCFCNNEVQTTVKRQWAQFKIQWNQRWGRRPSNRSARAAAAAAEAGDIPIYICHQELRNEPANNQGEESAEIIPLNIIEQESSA
T1 sequence (O60896 whole entry): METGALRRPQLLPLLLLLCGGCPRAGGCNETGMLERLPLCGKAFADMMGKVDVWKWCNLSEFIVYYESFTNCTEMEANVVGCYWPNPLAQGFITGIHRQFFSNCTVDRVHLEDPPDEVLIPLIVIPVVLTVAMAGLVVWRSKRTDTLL

[3] = target: T1, Amylin receptor AMY3; CALCR/RAMP3; assay: Agonist activity at human amylin receptor expressed in BHK570 cells co-expressing RAMP3 assessed as increase in intracellular cAMP concentration incubated for 3 hrs in absence of albumin by CRE luciferase reporter gene assay; type: functional, cell-based
[4] = Solubility in 100 mM glycylglycine buffer at pH 3.0 incubated for 18 hrs by UPLC analysis; type: physicochemical
[5] = target: T1, Amylin receptor AMY3; CALCR/RAMP3; assay: Agonist activity at human amylin receptor expressed in BHK570 cells co-expressing RAMP3 assessed as increase in intracellular cAMP concentration incubated for 3 hrs in presence of 10% FBS by CRE luciferase reporter gene assay; type: functional, cell-based
Rattus norvegicus [6] = assay: Reduction in food intake in Sprague-Dawley rat at 3 nmol/kg measured 0 to 24 hrs post dose relative to control; type: functional; set-up: scale not given: the % may be the effect or the level left
Rattus norvegicus [7] = assay: Reduction in food intake in Sprague-Dawley rat at 3 nmol/kg measured 24 to 48 hrs post dose relative to control; type: functional; set-up: scale not given: the % may be the effect or the level left
[8] = Solubility in 100 mM bistrispropane buffer at pH 7.0 incubated for 18 hrs by UPLC analysis; type: physicochemical
Calcitonin receptor [9] = target: T2, Calcitonin receptor (Homo sapiens, UniProt P30988); assay: Agonist activity at human calcitonin receptor expressed in BHK570 cells assessed as increase in intracellular cAMP concentration incubated for 3 hrs in absence of albumin by CRE luciferase reporter gene assay; type: functional, cell-based
T2 sequence (P30988 whole entry): T1 sequence (P30988 whole entry)

[10] = Solubility in 100 mM bistrispropane buffer at pH 7.5 incubated for 18 hrs by UPLC analysis; type: physicochemical
[11] = Solubility in 100 mM bistrispropane buffer at pH 6.5 incubated for 18 hrs by UPLC analysis; type: physicochemical
[12] = Solubility in 100 mM glycylglycine buffer at pH 5.0 incubated for 18 hrs by UPLC analysis; type: physicochemical
Calcitonin receptor [13] = target: T2, Calcitonin receptor; assay: Agonist activity at human calcitonin receptor expressed in BHK570 cells assessed as increase in intracellular cAMP concentration incubated for 3 hrs in presence of 10% FBS by CRE luciferase reporter gene assay; type: functional, cell-based
[14] = Solubility in 100 mM bistrispropane buffer at pH 6.0 incubated for 18 hrs by UPLC analysis; type: physicochemical
[15] = Solubility in 100 mM bistrispropane buffer at pH 8.0 incubated for 18 hrs by UPLC analysis; type: physicochemical

Structure (SMILES)	solubility at 18 h [1]	IC50 [2]	EC50 [3]	solubility at 18 h [4]	EC50 [5]	Activity (Rattus norvegicus [6])	Activity (Rattus norvegicus [7])	solubility at 18 h [8]	EC50 (Calcitonin receptor [9])	solubility at 18 h [10]	solubility at 18 h [11]	solubility at 18 h [12]	EC50 (Calcitonin receptor [13])	solubility at 18 h [14]	solubility at 18 h [15]
CC(C)C[C@H](NC(=O)CNC(=O)[C@H](CO)NC(=O)[C@H](CC(C)C)NC(=O)[C@H](CCC(=O)O)NC(=O)CC[C@H](NC(=O)CCCCCCCCCCCCCCCCCCC(=O)O)C(=O)O)C(=O)N[C@@H](CO)C(=O)N[C@H](C(=O)N[C@@H](CC(C)C)C(=O)N[C@H](C(=O)N[C@@H](CC(C)C)C(=O)NCC(=O)N[C@@H](CCCNC(=N)N)C(=O)N[C@@H](CC(C)C)C(=O)N[C@@H](CO)C(=O)N[C@@H](CCC(N)=O)C(=O)N[C@@H](CCC(=O)O)C(=O)N[C@@H](CC(C)C)C(=O)N[C@@H](Cc1cnc[nH]1)C(=O)N[C@@H](CCC(=O)O)C(=O)N[C@@H](CC(C)C)C(=O)N[C@@H](CCC(N)=O)C(=O)N[C@H](C(=O)N[C@@H](Cc1ccc(O)cc1)C(=O)N1CCC[C@H]1C(=O)N[C@@H](CCCNC(=N)N)C(=O)N[C@H](C(=O)NCC(=O)N[C@H](C(=O)NCC(=O)N[C@@H](CO)C(=O)NCC(=O)N[C@H](C(=O)N[C@@H](Cc1ccc(O)cc1)C(N)=O)[C@@H](C)O)[C@@H](C)O)[C@@H](C)O)[C@@H](C)O)C(C)C)[C@@H](C)O ({C20 diacid-γGlu}-ELSGLSTLVLGRLSQELHELQTYPRTGTGSGTY-NH2)	≥ 200 µM	2.56 nM	0.025 nM	≥ 200 µM	0.565 nM	32%	0%	–	–	–	–	–	–	–	–
CC(C)C[C@H](NC(=O)[C@H](C)NC(=O)[C@H](C)NC(=O)[C@@H](NC(=O)[C@H](CO)NC(=O)[C@H](CC(C)C)NC(=O)[C@H](CCC(=O)O)NC(=O)[C@H](CO)NC(=O)[C@H](C)NC(=O)[C@H](CCC(=O)O)NC(=O)CCCCCCCCCCCCCCCCCCC(=O)O)[C@@H](C)O)C(=O)NCC(=O)N[C@@H](CCCNC(=N)N)C(=O)N[C@@H](CC(C)C)C(=O)N[C@@H](CO)C(=O)N[C@@H](C)C(=O)N[C@@H](CCC(=O)O)C(=O)N[C@@H](CC(C)C)C(=O)N[C@@H](Cc1cnc[nH]1)C(=O)N[C@@H](CCC(=O)O)C(=O)N[C@@H](CC(C)C)C(=O)N[C@@H](C)C(=O)N[C@H](C(=O)N[C@@H](CC(C)C)C(=O)N1CCC[C@H]1C(=O)N[C@@H](CCCNC(=N)N)C(=O)N[C@H](C(=O)N[C@@H](CCC(=O)O)C(=O)N[C@H](C(=O)NCC(=O)N[C@@H](CO)C(=O)NCC(=O)N[C@@H](CO)C(=O)N1CCC[C@H]1C(N)=O)[C@@H](C)O)[C@@H](C)O)[C@@H](C)O ({C20 diacid}-EASELSTAALGRLSAELHELATLPRTETGSGSP-NH2)	≥ 200 µM	0.24 nM	0.011 nM	≥ 200 µM	0.061 nM	55.5%	63.5%	≥ 200 µM	0.009 nM	≥ 200 µM	≥ 200 µM	≥ 200 µM	0.026 nM	≥ 200 µM	≥ 200 µM
CC(C)C[C@H](NC(=O)CNC(=O)[C@H](CO)NC(=O)[C@H](C)NC(=O)CC[C@H](NC(=O)CCCCCCCCCCCCCCCCCCC(=O)O)C(=O)O)C(=O)N[C@@H](CO)C(=O)N[C@H](C(=O)N[C@@H](C)C(=O)N[C@@H](C)C(=O)N[C@@H](CC(C)C)C(=O)NCC(=O)N[C@@H](CCCNC(=N)N)C(=O)N[C@@H](CC(C)C)C(=O)N[C@@H](CO)C(=O)N[C@@H](CCC(=O)O)C(=O)N[C@@H](CCC(=O)O)C(=O)N[C@@H](CC(C)C)C(=O)N[C@@H](Cc1cnc[nH]1)C(=O)N[C@@H](CCC(=O)O)C(=O)N[C@@H](CC(C)C)C(=O)N[C@@H](CCC(N)=O)C(=O)N[C@H](C(=O)N[C@@H](Cc1ccc(O)cc1)C(=O)N1CCC[C@H]1C(=O)N[C@@H](CCCNC(=N)N)C(=O)N[C@H](C(=O)N[C@@H](CCC(=O)O)C(=O)N[C@H](C(=O)NCC(=O)N[C@@H](CO)C(=O)NCC(=O)N[C@H](C(=O)N[C@@H](Cc1ccc(O)cc1)C(N)=O)[C@@H](C)O)[C@@H](C)O)[C@@H](C)O)[C@@H](C)O)[C@@H](C)O ({C20 diacid-γGlu}-ASGLSTAALGRLSEELHELQTYPRTETGSGTY-NH2)	–	–	0.036 nM	≥ 200 µM	0.159 nM	21%	6%	≥ 200 µM	0.021 nM	≥ 200 µM	≥ 200 µM	–	0.057 nM	≥ 200 µM	≥ 200 µM
CC(C)C[C@H](NC(=O)[C@H](CCC(=O)O)NC(=O)[C@H](Cc1cnc[nH]1)NC(=O)[C@H](CC(C)C)NC(=O)[C@H](CCC(=O)O)NC(=O)[C@H](C)NC(=O)[C@H](CO)NC(=O)[C@H](CC(C)C)NC(=O)[C@H](CCCNC(=N)N)NC(=O)CNC(=O)[C@H](CC(C)C)NC(=O)[C@@H](NC(=O)[C@H](C)NC(=O)[C@@H](NC(=O)[C@H](CO)NC(=O)[C@H](CC(C)C)NC(=O)[C@H](CCC(=O)O)NC(=O)[C@H](CO)NC(=O)[C@H](C)NC(=O)[C@H](CCC(=O)O)NC(=O)CCCCCCCCCCCCCCCCC(=O)O)[C@@H](C)O)C(C)C)C(=O)N[C@@H](C)C(=O)N[C@H](C(=O)N[C@@H](CC(C)C)C(=O)N1CCC[C@H]1C(=O)N[C@@H](CCCNC(=N)N)C(=O)N[C@H](C(=O)N[C@@H](CCC(=O)O)C(=O)N[C@H](C(=O)NCC(=O)N1CCC[C@H]1C(=O)N[C@@H](CCC(=O)O)C(=O)N[C@@H](CO)C(=O)N1CCC[C@H]1C(N)=O)[C@@H](C)O)[C@@H](C)O)[C@@H](C)O ({C18 diacid}-EASELSTAVLGRLSAELHELATLPRTETGPESP-NH2)	≥ 200 µM	0.796 nM	0.012 nM	≥ 200 µM	–	58.5%	39%	≥ 200 µM	0.009 nM	≥ 200 µM	≥ 200 µM	≥ 200 µM	–	≥ 200 µM	≥ 200 µM
CC(C)C[C@H](NC(=O)[C@H](C)NC(=O)[C@H](C)NC(=O)[C@@H](NC(=O)[C@H](CO)NC(=O)[C@H](CC(C)C)NC(=O)[C@H](CCC(=O)O)NC(=O)[C@H](CO)NC(=O)[C@H](C)NC(=O)[C@H](CCC(=O)O)NC(=O)CCCCCCCCCCCCCCCCC(=O)O)[C@@H](C)O)C(=O)NCC(=O)N[C@@H](CCCNC(=N)N)C(=O)N[C@@H](CC(C)C)C(=O)N[C@@H](CO)C(=O)N[C@@H](C)C(=O)N[C@@H](CCC(=O)O)C(=O)N[C@@H](CC(C)C)C(=O)N[C@@H](Cc1cnc[nH]1)C(=O)N[C@@H](CCC(=O)O)C(=O)N[C@@H](CC(C)C)C(=O)N[C@@H](C)C(=O)N[C@H](C(=O)N[C@@H](CC(C)C)C(=O)N1CCC[C@H]1C(=O)N[C@@H](CCCNC(=N)N)C(=O)N[C@H](C(=O)N[C@@H](CCC(=O)O)C(=O)N[C@H](C(=O)NCC(=O)N[C@@H](CO)C(=O)NCC(=O)N[C@@H](CO)C(=O)N1CCC[C@H]1C(N)=O)[C@@H](C)O)[C@@H](C)O)[C@@H](C)O ({C18 diacid}-EASELSTAALGRLSAELHELATLPRTETGSGSP-NH2)	≥ 200 µM	0.187 nM	0.009 nM	≥ 200 µM	0.039 nM	71%	46%	≥ 200 µM	0.006 nM	≥ 200 µM	≥ 200 µM	≥ 200 µM	0.019 nM	≥ 200 µM	≥ 200 µM
